Where two headings read alike, the source gives them in different places.
Molecular target: T1, Brain CCK receptor (Mus musculus, UniProt P56481)
T1 construct: from tissue; host or cells: forebrain membranes of male CF-1 mice
T1 sequence (P56481 1-453): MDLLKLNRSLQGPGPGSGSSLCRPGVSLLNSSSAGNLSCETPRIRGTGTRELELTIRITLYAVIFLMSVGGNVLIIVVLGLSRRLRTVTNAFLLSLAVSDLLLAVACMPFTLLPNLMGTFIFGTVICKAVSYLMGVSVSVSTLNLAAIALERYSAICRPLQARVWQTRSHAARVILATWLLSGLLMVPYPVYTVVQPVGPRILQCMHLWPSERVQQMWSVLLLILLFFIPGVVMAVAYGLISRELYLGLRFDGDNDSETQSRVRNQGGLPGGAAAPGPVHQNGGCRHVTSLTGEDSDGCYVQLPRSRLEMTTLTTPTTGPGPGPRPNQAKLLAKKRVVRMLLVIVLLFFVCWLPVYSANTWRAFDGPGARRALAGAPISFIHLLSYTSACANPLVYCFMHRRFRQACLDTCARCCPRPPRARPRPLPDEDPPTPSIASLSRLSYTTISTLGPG
Assay: Brain CCK receptor binding (mouse brain membranes, 125I-CCK-8 sulfate)
Protocol: Brain CCK receptor binding was performed using mouse brain membranes according to the method of Chang and Lotti (Proc. Natl. Acad. Sci. 83: 4923-4926, 1986). Male CF-1 mice, 23-25 g were sacrificed by cervical dislocation, the forebrain removed and placed in ice cold 50 mM Tris buffer, pH 7.4. The tissue was homogenized in 100 volumes of the Tris buffer with a Brinkman Polytron or Tekmar Tissumizer and then centrifuged at 40,000 g for 10 min. Pellets were resuspended in Tris buffer, centrifuged as above and then resuspended in 100 volumes of assay buffer, pH 6.5 (20 mM N-2-hydroxyethyl-piperazine-N'-2-ethane sulfonic acid (HEPES), 1 mM ethylene glycol bis(2-aminoethyl ether-N,N,N',N'-tetraaceticacid) (EGTA), 5 mM MgCl2, 130 mM NaCl, and 0.25 mg/ml bacitracin). The binding assay consisted of 50 μL of compound (or buffer for total binding), 50 μL of ^125 I-CCK-8 sulfate (20 pM) (Amersham IM-159), 200 μL of assay buffer and 200 μL of homogenate (80-120 μg protein). The samples were incubated at room temperature (25°) for 2 hours, and they were then filtered through GF/B glass fiber filters (soaked in wash buffer for 2 hours before use) using a 48 well Brandel cell harvester designed for receptor binding. The filters were washed twice with 3 ml of 50 mM Tris buffer, pH 7.4, containing 0.01% BSA and then counted for radioactivity in plastic tubes with a Micromedic 10/600 automatic gamma counter.
Compounds were dissolved in dimethyl sulfoxide (DMSO) at a concentration of 10 mM and then further diluted with assay buffer. […] IC-50 values of displacement curves were determined using 7 concentrations of compound and were calculated using the ALLFIT computer program of DeLean, Munson and Rodbard (Am. J. Physiol. 235: E97-E102, 1978). Non-specific binding was determined as the displacement of the radioligand by 100 nM CCK-8 sulfate.

[1] = read-out: Brain % inhibition in binding assay, mouse brain membranes
[2] = mouse brain membranes, Mean ± SEM, n = 3, values without SEM n = 1, read-out: Brain IC50
[3] = mouse brain membranes, read-out: Brain % inhibition in binding assay

Row | Compound | IC50 [2] [nM] | other results
1 | O=c1c2ccccc2nc(Cc2c[nH]c3ccccc23)n1-c1ccccc1 [Example 2, 2-(3-Indolylmethyl)-3-phenyl-4-(3H)quinazolinone] |  | inhibition at 10 µM [1]: 36%
2 | COc1ccc2[nH]cc(CCc3nc4ccccc4c(=O)n3-c3ccccc3)c2c1 [Example 3, 2-[2-(5-methoxyindol-3-yl)-ethyl]-3-phenyl-4-(3H)quinazolinone] | 410 | 
3 | COc1cccc(-n2c(CC(c3ccccc3)c3c[nH]c4ccccc34)nc3ccccc3c2=O)c1 (centres unmarked) [Example 5, 2-[2-Phenyl-2-(3-indolyl)ethyl]-3-(3-methoxyphenyl)-4-(3H)quinazolinone] |  | inhibition at 1 µM (mouse brain membranes): 57%
4 | O=c1c2ccccc2nc(CCc2c[nH]c3cc(Cl)ccc23)n1-c1ccccc1 [Example 7] | 1100 | 
5 | O=c1c2ccccc2nc(CCc2c[nH]c3ccccc23)n1-c1ccccc1F [Example 8] |  | inhibition at 10 µM [1]: 75%
6 | O=c1c2ccccc2nc(CCc2c[nH]c3ccccc23)n1-c1ccccc1Cl [Example 9] |  | inhibition at 10 µM [1]: 44%
7 | COc1ccccc1-n1c(CCc2c[nH]c3ccccc23)nc2ccccc2c1=O [Example 10] |  | inhibition at 10 µM [1]: 74%
8 | O=c1c2ccccc2nc(CCc2c[nH]c3ccccc23)n1-c1ccccc1C(F)(F)F [Example 11] |  | inhibition at 10 µM [3]: 35%
9 | COc1cccc(-n2c(CCc3c[nH]c4ccc(F)cc34)nc3ccccc3c2=O)c1 [Example 18] | 110 ± 10 | 
10 | COc1cccc(-n2c(CCc3c[nH]c4ccc(Cl)cc34)nc3ccccc3c2=O)c1 [Example 19] | 47 ± 3 | 
11 | COc1cccc(-n2c(CCc3c[nH]c4ccc(C)cc34)nc3ccccc3c2=O)c1 [Example 21] | 55 ± 3 | 
12 | COc1cccc(-n2c(CCc3c[nH]c4ccc(OC)cc34)nc3ccccc3c2=O)c1 [Example 22] | 67 ± 5 | 
13 | CCOc1cccc(-n2c(CCc3c[nH]c4ccc(OC)cc34)nc3ccccc3c2=O)c1 [Example 24] | 33 | 
14 | CC(C)Oc1cccc(-n2c(CCc3c[nH]c4ccccc34)nc3ccccc3c2=O)c1 [Example 25] | 26 ± 0.3 | 
15 | CC(C)Oc1cccc(-n2c(CCc3c[nH]c4ccc(Cl)cc34)nc3ccccc3c2=O)c1 [Example 26] | 19 ± 5 | 
16 | COc1ccc2[nH]cc(CCc3nc4ccccc4c(=O)n3-c3cccc(OC(C)C)c3)c2c1 [Example 27] | 19 | 
17 | CSc1cccc(-n2c(CCc3c[nH]c4ccc(Br)cc34)nc3ccccc3c2=O)c1 [Example 32] | 46 ± 8 | 
18 | COc1ccc2[nH]cc(CCc3nc4ccccc4c(=O)n3-c3cccc(SC)c3)c2c1 [Example 33] | 34 | 
19 | O=c1c2ccccc2nc(CCc2c[nH]c3ccc(Br)cc23)n1-c1cccc(C(F)(F)F)c1 [Example 34] | 230 ± 30 | 
20 | O=c1c2ccccc2nc(CCc2c[nH]c3ccc(Cl)cc23)n1-c1cccc(C(F)(F)F)c1 [Example 35] | 230 | 
21 | Cc1ccc2[nH]cc(CCc3nc4ccccc4c(=O)n3-c3cccc(C(F)(F)F)c3)c2c1 [Example 36] | 190 | 
22 | COc1ccc2[nH]cc(CCc3nc4ccccc4c(=O)n3-c3cccc(C(F)(F)F)c3)c2c1 [Example 37] | 130 | 
23 | CN(C)c1cccc(-n2c(CCc3c[nH]c4ccc(Br)cc34)nc3ccccc3c2=O)c1 [Example 38] | 16 ± 1 | 
24 | CN(C)c1cccc(-n2c(CCc3c[nH]c4ccc(Cl)cc34)nc3ccccc3c2=O)c1 [Example 39] | 13 | 

Row | Compound | IC50 [2] [nM] | other results
25 | O=c1c2ccccc2nc(CCc2c[nH]c3ccc(Br)cc23)n1-c1cccc(N2CCCC2)c1 [Example 40] | 22 ± 3 | 
26 | COc1cc(OC)cc(-n2c(CCc3c[nH]c4ccccc34)nc3ccccc3c2=O)c1 [Example 41] | 1800 | 
27 | O=c1c2ccccc2nc(CCc2c[nH]c3ccccc23)n1-c1ccc2c(c1)OCO2 [Example 42] | 190 ± 40 | 
28 | CCCc1cc(-n2c(CCc3c[nH]c4ccc(Br)cc34)nc3ccccc3c2=O)ccc1OC [Example 43] |  | inhibition at 1 µM (mouse brain membranes): 85%
29 | CCOc1ccc(-n2c(CCc3c[nH]c4ccc(Br)cc34)nc3ccccc3c2=O)cc1C [Example 44] | 65 | 
30 | COc1ccc(-n2c(CCc3c[nH]c4ccc(Br)cc34)nc3ccccc3c2=O)cc1C [Example 45] | 29 | 
31 | COc1ccc(-n2c(CCc3c[nH]c4ccc(Br)cc34)nc3ccccc3c2=O)cc1OC [Example 46] | 130 ± 30 | 
32 | CCc1ccc(-n2c(CCc3c[nH]c4ccc(Br)cc34)nc3ccccc3c2=O)cc1 [Example 47] | 28 ± 4 | 
33 | CC(C)c1ccc(-n2c(CCc3c[nH]c4ccc(Br)cc34)nc3ccccc3c2=O)cc1 [Example 48] | 37 ± 13 | 
34 | CC(C)c1ccc(-n2c(CCc3c[nH]c4ccc(Cl)cc34)nc3ccccc3c2=O)cc1 [Example 49] | 38 | 
35 | CCCCc1ccc(-n2c(CCc3c[nH]c4ccc(Br)cc34)nc3ccccc3c2=O)cc1 [Example 50] | 930 | 
36 | COc1ccc(-n2c(CCc3c[nH]c4ccccc34)nc3ccccc3c2=O)cc1 [Example 51] |  | IC50: 98 ± 7 nM
37 | CCOc1ccc(-n2c(CCc3c[nH]c4ccc(Br)cc34)nc3ccccc3c2=O)cc1 [Example 53] | 88 ± 10 | 
38 | CCCOc1ccc(-n2c(CCc3c[nH]c4ccc(Br)cc34)nc3ccccc3c2=O)cc1 [Example 54] | 1200 | 
39 | CC(C)Oc1ccc(-n2c(CCc3c[nH]c4ccc(Br)cc34)nc3ccccc3c2=O)cc1 [Example 55] | 110 ± 20 | 
40 | CCCCOc1ccc(-n2c(CCc3c[nH]c4ccc(Br)cc34)nc3ccccc3c2=O)cc1 [Example 56] | 1100 | 
41 | CN(C)c1ccc(-n2c(CCc3c[nH]c4ccc(Br)cc34)nc3ccccc3c2=O)cc1 [Example 57] | 33 ± 6 | 
42 | CN(C)c1ccc(-n2c(CCc3c[nH]c4ccc(Cl)cc34)nc3ccccc3c2=O)cc1 [Example 58] | 87 | 
43 | CCN(CC)c1ccc(-n2c(CCc3c[nH]c4ccc(Br)cc34)nc3ccccc3c2=O)cc1 [Example 59] | 47 | 
44 | CSc1ccc(-n2c(CCc3c[nH]c4ccc(Br)cc34)nc3ccccc3c2=O)cc1 [Example 60] | 37 ± 10 | 
45 | COc1cccc(-n2c(CC(C)c3c[nH]c4ccc(Br)cc34)nc3ccccc3c2=O)c1 (centres unmarked) [Example 63] | 100 | 
46 | COc1cccc(-n2c(CC(Cc3ccccc3)c3c[nH]c4ccccc34)nc3ccccc3c2=O)c1 (centres unmarked) [Example 65] |  | inhibition at 10 µM [3]: 70%
47 | CC(C)Oc1cccc(-n2c(CCc3c[nH]c4ccc(Br)cc34)nc3ccc(Cl)cc3c2=O)c1 [Example 66] |  | inhibition at 1 µM (mouse brain membranes): 90%

Reference: US5196427A, “3-aryl-4(3H) quinazolinone CCK antagonists and pharmaceutical formulations thereof” (Eli Lilly and Company, priority 1991, dated 1993)
